According to ChEMBL document CHEMBL1149256, “Discovery of 4-aryl-4H-chromenes as a new series of apoptosis inducers using a cell- and caspase-based high-throughput screening assay. 1. Structure-activity relationships of the 4-aryl group” (J Med Chem, 2004):
Calls of active or inactive are those of the source. The rule behind the calls is not given here.

How the values were obtained:
NCI-H1299 = assay: Induction of apoptosis in human H1299 cells assessed as caspase activation after 24 hrs; assay type: functional, cell-based; conditions: NCI-H1299, 24 h
DLD-1 [1] = assay: Induction of apoptosis in human DLD1 cells assessed as caspase activation after 24 hrs; assay type: functional, cell-based; conditions: DLD-1, 24 h
T47D [2] = assay: Induction of apoptosis in human T47D cells assessed as caspase activation after 24 hrs; assay type: functional, cell-based
Tubulin [3] = assay: Displacement of [3H]colchicine from tubulin; assay type: protein-complex assay, Homo sapiens
Jurkat [4] = assay: Induction of apoptosis in Jurkat cells assessed as PARP cleavage at 1 uM after 30 hrs; assay type: functional, cell-based; conditions: Homo sapiens
T47D [5] = assay: Induction of apoptosis in human T47D cells assessed as accumulation at subG1 phase at 0.1 uM after 48 hrs; assay type: functional
Jurkat [6] = assay: Induction of apoptosis in Jurkat cells assessed as PARP cleavage at 2.5 uM; assay type: functional, cell-based; conditions: Homo sapiens, TDE = time-dependent effect
T47D [7] = assay: Induction of apoptosis in human T47D cells assessed as accumulation at S phase at 0.1 uM after 24 hrs; assay type: functional
T47D [8] = assay: Induction of apoptosis in human T47D cells assessed as accumulation at G2/M phase at 0.1 uM after 24 hrs; assay type: functional
T47D [9] = assay: Induction of apoptosis in human T47D cells assessed as accumulation at S phase at 0.1 uM after 48 hrs; assay type: functional
T47D [10] = assay: Induction of apoptosis in human T47D cells assessed as accumulation at G1 phase at 0.1 uM after 24 hrs; assay type: functional
T47D [11] = assay: Induction of apoptosis in human T47D cells assessed as accumulation at G2/M phase at 0.1 uM after 48 hrs; assay type: functional
Jurkat [12] = assay: Induction of caspase-mediated apoptosis in Jurkat cells at 0.1 uM after 24 hrs by nuclear fragmentation assay; assay type: functional, cell-based; conditions: Homo sapiens
T47D [13] = assay: Induction of apoptosis in human T47D cells assessed as accumulation at subG1 phase at 0.1 uM after 24 hrs; assay type: functional
T47D [14] = assay: Induction of apoptosis in human T47D cells assessed as accumulation at G1 phase at 0.1 uM after 48 hrs; assay type: functional
Tubulin [15] = assay: Inhibition of tubulin polymerization; assay type: protein-complex assay, Homo sapiens
DLD-1 [16] = assay: Ratio of GI50 for human DLD1 cells to EC50 for human DLD1 cells; assay type: functional
T47D [17] = assay: Antiproliferative activity against human T47D cells after 48 hrs by MTT assay; assay type: functional
DLD-1 [18] = assay: Antiproliferative activity against human DLD1 cells after 48 hrs by MTT assay; assay type: functional; conditions: DLD-1, 48 h
T47D [19] = assay: Ratio of GI50 for human T47D cells to EC50 for human T47D cells; assay type: functional

| SMILES | EC50 (NCI-H1299) | EC50 (DLD-1 [1]) | EC50 (T47D [2]) | also measured |
| --- | --- | --- | --- | --- |
| CN(C)c1ccc2c(c1)OC(N)=C(C#N)C2c1ccncc1 (centres undefined) | 855 nM | 780 nM | 381 nM |  |
| COc1cccc(C2C(C#N)=C(N)Oc3cc(N(C)C)ccc32)c1OC (centres undefined) | 2130 nM | 1270 nM | 1020 nM |  |
| CN(C)c1ccc2c(c1)OC(N)=C(C#N)C2c1ccccn1 (centres undefined) | 1430 nM | 959 nM | 465 nM |  |
| COc1ccc(C2C(C#N)=C(N)Oc3cc(N(C)C)ccc32)cc1 (centres undefined) | 2000 nM | 2600 nM | 1600 nM |  |
| COc1cccc(C2C(C#N)=C(N)Oc3cc(N(C)C)ccc32)c1 (centres undefined) | 200 nM | 81 nM | 65 nM |  |
| CN(C)c1ccc2c(c1)OC(N)=C(C#N)C2c1cc(Br)cs1 (centres undefined) | 240 nM | 160 nM | 150 nM |  |
| CN(C)c1ccc2c(c1)OC(N)=C(C#N)C2c1cc(Cl)cc(Cl)c1 (centres undefined) | 233 nM | 242 nM | 76 nM |  |
| CN(C)c1ccc2c(c1)OC(N)=C(C#N)C2c1cccc(F)c1 (centres undefined) | 304 nM | 129 nM | 81 nM |  |
| COc1cc(C2C(C#N)=C(N)Oc3cc(N(C)C)ccc32)cc(Cl)c1OC (centres undefined) | 36 nM | 65 nM | 18 nM |  |
| CN(C)c1ccc2c(c1)OC(N)=C(C#N)C2c1cccnc1 (centres undefined) | 155 nM | 123 nM | 68 nM |  |
| COc1cc(C2C(C#N)=C(N)Oc3cc(N(C)C)ccc32)cc(Br)c1OC (centres undefined) |  |  |  | IC50 (Tubulin [3]): 8000 nM |
| CN(C)c1ccc2c(c1)OC(N)=C(C#N)C2c1cccc(O)c1 (centres undefined) | 959 nM | 532 nM | 272 nM |  |
| COc1cc(OC)c(C2C(C#N)=C(N)Oc3cc(N(C)C)ccc32)cc1OC (centres undefined) | 2290 nM | 3240 nM | 1770 nM |  |
| COc1ccc(C2C(C#N)=C(N)Oc3cc(N(C)C)ccc32)c(OC)c1OC (centres undefined) | 3740 nM | 5090 nM | 3160 nM |  |
| COc1ccccc1C1C(C#N)=C(N)Oc2cc(N(C)C)ccc21 (centres undefined) | 560 nM | 330 nM | 280 nM |  |
| Cc1cccc(C2C(C#N)=C(N)Oc3cc(N(C)C)ccc32)c1 (centres undefined) | 420 nM | 168 nM | 134 nM |  |
| CN(C)c1ccc2c(c1)OC(N)=C(C#N)C2c1cncc(Br)c1 (centres undefined) | 46 nM | 26 nM | 33 nM |  |
| CN(C)c1ccc2c(c1)OC(N)=C(C#N)C2c1cccc(C#N)c1 (centres undefined) | 215 nM | 82 nM | 63 nM |  |
| COc1ccc(C2C(C#N)=C(N)Oc3cc(N(C)C)ccc32)cc1OC (centres undefined) | 510 nM | 347 nM | 253 nM |  |
| CC(=O)O[C@H]1C(=O)[C@@]2(C)[C@H]([C@H](OC(=O)c3ccccc3)[C@]3(O)C[C@H](OC(=O)[C@H](O)[C@@H](NC(=O)c4ccccc4)c4ccccc4)C(C)=C1C3(C)C)[C@]1(OC(C)=O)CO[C@@H]1C[C@@H]2O [PACLITAXEL] | 163 nM | 75 nM | 30 nM |  |

| SMILES | EC50 (NCI-H1299) | EC50 (DLD-1 [1]) | EC50 (T47D [2]) | also measured |
| --- | --- | --- | --- | --- |
| COc1cc(C2C(C#N)=C(N)Oc3cc(N(C)C)ccc32)cc(Br)c1O (centres undefined) | 144 nM | 64 nM | 41 nM |  |
| CN(C)c1ccc2c(c1)OC(N)=C(C#N)C2c1cnc2ccccc2c1 (centres undefined) | 2230 nM | 2740 nM | 1820 nM |  |
| CN[C@@H]1C[C@H]2O[C@@](C)([C@@H]1OC)n1c3ccccc3c3c4c(c5c6ccccc6n2c5c31)C(=O)NC4 |  |  |  | Activity (Jurkat [4]): Active |
| CN(C)c1ccc2c(c1)OC(N)=C(C#N)C2c1cccc(OC(F)(F)F)c1 (centres undefined) | 1140 nM | 457 nM | 450 nM |  |
| CCCCCCCCCCCCOc1cccc(C2C(C#N)=C(N)Oc3cc(N(C)C)ccc32)c1 (centres undefined) | > 10000 nM | > 10000 nM | > 10000 nM |  |
| COc1cc(C2C(C#N)=C(N)Oc3cc(N(C)C)ccc32)cc2c1OCO2 (centres undefined) |  | 83 nM |  | Activity (T47D [5]): 12%; Activity (Jurkat [6]): tde; Activity (T47D [7]): 7.6%; Activity (T47D [8]): 44%; Activity (T47D [9]): 18.8%; Activity (T47D [10]): 43.5%; Activity (T47D [11]): 57%; Activity (Jurkat [12]): Active; Activity (T47D [13]): 4.3%; Activity (T47D [14]): 11%; IC50 (Tubulin [15]): 400 nM |
| CN(C)c1ccc2c(c1)OC(N)=C(C#N)C2c1cccc(C(=O)O)c1 (centres undefined) | > 10000 nM | > 10000 nM | > 10000 nM |  |
| CC[C@]1(O)C[C@@H]2CN(CCc3c([nH]c4ccccc34)[C@@](C(=O)OC)(c3cc4c(cc3OC)N(C)[C@H]3[C@@](O)(C(=O)OC)[C@H](OC(C)=O)[C@]5(CC)C=CCN6CC[C@]43[C@@H]65)C2)C1 [VINBLASTINE] | 73 nM | 129 nM | 25 nM |  |
| COc1cc(Br)cc(C2C(C#N)=C(N)Oc3cc(N(C)C)ccc32)c1 (centres undefined) | 63 nM | 125 nM | 31 nM |  |
| CN(C)c1ccc2c(c1)OC(N)=C(C#N)C2c1cccc(Cl)c1 (centres undefined) | 514 nM | 158 nM | 112 nM |  |
| CN(C)c1ccc2c(c1)OC(N)=C(C#N)C2c1cc(Br)c2c(c1)OCO2 (centres undefined) | 754 nM | 293 nM | 245 nM | Ratio GI50/EC50 (DLD-1 [16]): 2.5; GI50 (T47D [17]): 605 nM; GI50 (DLD-1 [18]): 735 nM; Ratio GI50/EC50 (T47D [19]): 2.5 |
| CN(C)c1ccc2c(c1)OC(N)=C(C#N)C2c1cccs1 (centres undefined) | 300 nM | 270 nM | 200 nM |  |
| Cc1cccc(C2C(C#N)=C(N)Oc3cc(N(C)C)ccc32)n1 (centres undefined) | 622 nM | 438 nM | 244 nM |  |
| COc1cc(C2C(C#N)=C(N)Oc3cc(N(C)C)ccc32)cc(I)c1OC (centres undefined) | 34 nM | 64 nM | 18 nM |  |
| CN(C)c1ccc2c(c1)OC(N)=C(C#N)C2CCc1ccccc1 (centres undefined) | 1080 nM | 590 nM | 430 nM |  |
| COc1cc2c(c(OC)c1OC)-c1ccc(OC)c(=O)cc1[C@@H](NC(C)=O)CC2 [COLCHICINE] | 34 nM |  |  |  |
| COc1cc(C2(C)C(C#N)=C(N)Oc3cc(N(C)C)ccc32)cc(Br)c1OC (centres undefined) | 7800 nM | 10400 nM | 7300 nM |  |
| Cc1cncc(C2C(C#N)=C(N)Oc3cc(N(C)C)ccc32)c1 (centres undefined) | 27 nM | 18 nM | 11 nM |  |
| CN(C)c1ccc2c(c1)OC(N)=C(C#N)C2c1cccc(Br)c1 (centres undefined) | 337 nM | 87 nM | 64 nM |  |
